Results published in patent publication US20240269125A1, “METHODS OF TREATING CORONAVIRUS INFECTIONS BY CO-ADMINISTERING AN FKBP LIGAND AND AN ANTIVIRAL AGENT” (priority 2020, published 2024).
Like-named read-outs stand apart in the source and are kept apart here.

Assays:
in vitro [1] = settings: African green monkey
[2] = tested on: SARS CoV-2 (USA-WA1/2020); assay: organism not typed; format: cell-based
[3] = tested on: SARS CoV-2 (USA-WA1/2020); assay: organism not typed; format: cell-based; settings: for reduction in SARS COV-2 virus: Example 6
[4] = tested on: SARS COV-2 (USA_WA1/2020); format: cell-based; settings: Example 10; remdesivir alone up to 6,666.667 nM; FK1706 alone up to 60,000 nM
Vero E6 cells = settings: Table 1, Example 6; 50% cell death in absence of virus, day 4
in vitro [5] = settings: African green monkey, TC50, Table 1, Example 6
[6] = TC50, Table 2, Example 7, 50% cell death in absence of virus, day 3
[7] = TC50, Table 4, Example 9, single conc. (sub-therapeutic antiviral alone)
[8] = Example 9, antiviral alone at sub-therapeutic level (molnupiravir 0.3 μM; remdesivir 3 μM)

Q: For `CCC(C)(C)C(=O)C(=O)N1CCC[C@H]1C(=O)O` [GPI-1485], which CC50 (in vitro [1]; TC50, Table 4, Example 9, day 3) is on record?
A: > 320 µM

Q: And the “reduction in SARS COV-2 virus” value ([2]; Example 9, GPI-1485 40-320 μM, alone or co-administered with fixed antiviral)?
A: 0-6%

Q: And the EC50 ([2]; Vero C1008, 72 h, Table 4, Example 9, Vero E6, day 3)?
A: > 320 µM

Q: With `O=C(C(=O)N1CCCC[C@H]1C(=O)NCCCc1ccccc1)c1ccccc1` [ElteN378] as the compound, how does the CC50 (in vitro [1]; [6]) read?
A: > 30 µM

Q: What about the “reduction in SARS COV-2 virus” value ([2]; Example 7, ElteN378 0.12-30 μM, alone or co-administered with fixed antiviral) of the same compound?
A: 0-7%

Q: What about the EC50 ([2]; Vero C1008, 72 h, Table 2, Example 7, Vero E6, concentration inhibiting CPE by 50%, day 3, read-out: EC50) of the same compound?
A: > 30 µM

Q: Which CC50 (in vitro [1]; TC50, Table 3, Example 8, day 3) does the source give for `CO[C@H]1C[C@@H](C)C/C(C)=C/[C@@H](CC(C)=O)C(=O)C[C@H](O)[C@@H](C)C(/C(C)=C/[C@@H]2CC[C@@H](O)[C@H](OC)C2)OC(=O)C2CCCCC2C(=O)C(=O)[C@]2(O)O[C@H]1[C@@H](OC)C[C@H]2C` (some centres unmarked) [FK1706] here?
A: > 90 µM

Q: What about the “reduction in SARS COV-2 virus” value ([3]; FK1706 11-90 μM, alone or co-administered with fixed antiviral) of the same compound?
A: 0-7%

Q: And the EC50 ([3]; Vero C1008, 96 h, Table 1, Example 6, Vero E6, concentration inhibiting CPE by 50%, day 4, read-out: EC50)?
A: > 90 µM

Q: And the “antiviral activity as single agent” value [4]?
A: no significant antiviral activity

Q: What about the “reduction in SARS COV-2 virus” value ([2]; Example 8, FK1706 alone 2.85-90 μM) of the same compound?
A: 0-10%

Q: What about the EC50 ([2]; Vero C1008, 72 h, Table 3, Example 8, Vero E6, day 3, read-out: EC50) of the same compound?
A: > 90 µM

Q: And the TC50 (Vero E6 cells)?
A: >90 µM

Q: With `CCC(CC)COC(=O)[C@H](C)N[P@](=O)(OC[C@H]1O[C@@](C#N)(c2ccc3c(N)ncnn23)[C@H](O)[C@@H]1O)Oc1ccccc1` [Remdesivir] as the compound, how does the CC50 (in vitro [5]; 50% cell death in absence of virus, day 4) read?
A: > 100 µM

Q: What about the CC50 (in vitro [5]; single conc. (sub-therapeutic antiviral alone)) of the same compound?
A: > 3 µM

Q: And the CC50 (in vitro [1]; [6])?
A: > 100 µM

Q: And the CC50 (in vitro [1]; TC50, Table 2, Example 7, single conc. (sub-therapeutic antiviral alone))?
A: > 3 µM

Q: What about the CC50 (in vitro [1]; [7]) of the same compound?
A: > 0.3 µM

Q: What about the EC50 [3] of the same compound?
A: > 3 µM

Q: And the “reduction in SARS COV-2 virus” value ([3]; antiviral alone at sub-therapeutic level (remdesivir 3 μM; M128533 1 μg/mL))?
A: 5-14%

Q: What about the EC50 ([3]; Vero C1008, 96 h) of the same compound?
A: 3.63 µM

Q: What about the “reduction in SARS COV-2 virus” value ([2]; Example 7, antiviral alone at sub-therapeutic level (remdesivir 3 μM; M128533 1 μg/mL)) of the same compound?
A: 2-19%

Q: What about the “reduction in SARS COV-2 virus” value [2, 8] of the same compound?
A: 20-30%

Q: And the EC50 ([2]; Table 2, Example 7, single conc. (sub-therapeutic antiviral alone))?
A: > 3 µM

Q: What about the EC50 ([2]; Table 4, Example 9, single conc. (sub-therapeutic antiviral alone)) of the same compound?
A: > 0.3 µM

Q: What about the EC50 ([2]; Vero C1008, 72 h, Table 2, Example 7, Vero E6, concentration inhibiting CPE by 50%, day 3) of the same compound?
A: 7.31 µM

Q: With `CC(C)C(=O)OC[C@H]1O[C@@H](n2ccc(=NO)[nH]c2=O)[C@H](O)[C@@H]1O` [Molnupiravir, ((2R,3S,4R,5R)-3,4-dihydroxy-5-(4-(hydroxyimino)-2-oxo-3,4-dihydropyrimidin-1(2H)-yl)tetrahydrofuran-2-yl)methyl isobutyrate] as the compound, how does the CC50 (in vitro [1]; TC50, Table 3, Example 8, single conc. (0.3 μM molnupiravir alone)) read?
A: > 0.3 µM

Q: And the CC50 (in vitro [1]; [7])?
A: > 0.3 µM

Q: And the “reduction in SARS COV-2 virus” value ([2]; Example 8, molnupiravir alone 0.3 μM)?
A: 4-13%

Q: And the “reduction in SARS COV-2 virus” value [2, 8]?
A: 4-13%

Q: What about the EC50 ([2]; Table 3, Example 8, single conc. (0.3 μM molnupiravir alone), read-out: EC50) of the same compound?
A: > 0.3 µM

Q: And the EC50 ([2]; Table 4, Example 9, single conc. (sub-therapeutic antiviral alone), read-out: EC50)?
A: > 0.3 µM
